27 compounds from US20230339851A1, “CXCR6 SULFONAMIDE COMPOUNDS” (CHEMOCENTRYX, INC., priority 2022, published 2023) can be followed below.

The target in this experiment is T1, human CXCR6 (Homo sapiens, UniProt O00574).
T1 construct: expressed in transfected cells
T1 sequence (O00574 whole entry): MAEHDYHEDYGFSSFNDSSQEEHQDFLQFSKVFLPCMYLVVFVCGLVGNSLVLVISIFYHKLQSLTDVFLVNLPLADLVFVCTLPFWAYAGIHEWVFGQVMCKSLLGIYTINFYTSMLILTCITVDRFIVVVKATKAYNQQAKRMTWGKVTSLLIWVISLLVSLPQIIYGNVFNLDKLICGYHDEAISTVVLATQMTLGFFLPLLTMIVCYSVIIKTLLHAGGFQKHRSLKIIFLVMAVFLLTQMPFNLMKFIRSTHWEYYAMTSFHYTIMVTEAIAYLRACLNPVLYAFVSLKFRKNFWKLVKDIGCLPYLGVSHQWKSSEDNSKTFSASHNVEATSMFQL
Briefly: Radioligand Binding Assay (125I-CXCL16 displacement). Particulars: L1.2 cells stably transfected with human CXCR6 cDNA, 0.1 nM 125I-CXCL16, 4° C., three-hour incubation; read-out: Potency (IC50). In a few lines: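 Displacement of 0.1 nM 125I-CXCL16 from human CXCR6 stably expressed in L1.2 cells was measured after a 3 h, 4 °C incubation in HBSS with 0.1% BSA. Filter-bound cpm were counted, and IC50 values came from a 3-parameter nonlinear fit.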
A word on the IC50: it is the midpoint of a concentration-inhibition curve. With `COc1cc(NC(=O)C2CC3C=CC2O3)ccc1S(=O)(=O)Nc1cccc(OC(F)(F)F)c1` (stereo not drawn) [Example 1.370], the IC50 was 750 to 2000 nM. The result for `COc1cc(NC(=O)[C@H]2CC[C@@H](OC)CC2)ccc1S(=O)(=O)Nc1cccc(C(F)(F)F)c1` [Example 1.371] reads 2000 to 20000 nM; that for `C=Cc1cc(NS(=O)(=O)c2ccc(NC(=O)[C@@H](CO)c3ccccc3)cc2OCC)ccc1C` [Example 1.372], not above 200 nM. As for `CCOc1cc(NC(=O)C2CCC(O)C2)ccc1S(=O)(=O)Nc1cccc(OC(F)(F)F)c1` (stereo not drawn) [Example 1.373], the figure is 750 to 2000 nM; as for `COc1cc(NC(C)=O)ccc1S(=O)(=O)Nc1cccc(C(F)(F)F)c1` [Example 1.374], 2000 to 20000 nM. The result for `CCOc1cc(NC(=O)[C@@H](O)C(C)C)ccc1S(=O)(=O)Nc1ccc(Cl)c(Cl)c1` [Example 1.375] reads not above 200 nM. In the case of `CCOc1cc(NC(=O)C(CO)C2CCC2)ccc1S(=O)(=O)Nc1cccc(OC(F)(F)F)c1` (stereo not drawn) [Example 1.376], the IC50 was not above 200 nM. The result for `CCOc1cc(NC(=O)C(C(=O)O)C2CCOCC2)ccc1S(=O)(=O)Nc1cccc(OC(F)(F)F)c1` (stereo not drawn) [Example 1.377] reads not above 200 nM. The result for `COc1cc(NC(=O)C2CC3C=CC2C3)ccc1S(=O)(=O)Nc1cccc(C(F)(F)F)c1` (stereo not drawn) [Example 1.379] reads 200 to 750 nM.

As to `Cc1cc(NC(=O)c2cccc(F)c2)ccc1S(=O)(=O)Nc1cccc(C(F)(F)F)c1` [Example 1.380], the IC50 lay within 200 to 750 nM. The result for `Cc1cc(NC(=O)C2CCNCC2)ccc1S(=O)(=O)Nc1cccc(C(F)(F)F)c1` [Example 1.381] reads 2000 to 20000 nM; that for `CCc1cc(NC(C)=O)ccc1S(=O)(=O)Nc1cccc(C(F)(F)F)c1` [Example 1.382], 750 to 2000 nM. As for `CCOc1cc(NC(=O)C(CCO)CC(C)C)ccc1S(=O)(=O)Nc1cccc(OC(F)(F)F)c1` (stereo not drawn) [Example 1.383], the figure is not above 200 nM; as for `CC(C)c1cc(NC(=O)c2ccnn2C)ccc1S(=O)(=O)Nc1cccc(C(F)(F)F)c1` [Example 1.384], 200 to 750 nM.

`CC(=O)Nc1ccc(S(=O)(=O)Nc2cccc(C(F)(F)F)c2)c(F)c1` [Example 1.385]: the IC50 lay within 2000 to 20000 nM. As for `CCOc1cc(NC(=O)C(CNC(C)=O)c2ccccc2)ccc1S(=O)(=O)Nc1cccc(OC(F)(F)F)c1` (stereo not drawn) [Example 1.386], the figure is not above 200 nM; as for `CCOc1cc(NC(=O)CC(O)CO)ccc1S(=O)(=O)Nc1cccc(OC(F)(F)F)c1` (stereo not drawn) [Example 1.387], 750 to 2000 nM.

Turning to `CCOc1cc(NC(=O)[C@@H](CO)c2ccccc2)ccc1S(=O)(=O)Nc1ccc(CO)c(C(F)(F)F)c1` [Example 1.388], the IC50 lay within 2000 to 20000 nM. As for `CCOc1cc(NC(=O)[C@@H](CO)c2ccccc2)ccc1S(=O)(=O)Nc1ccc(Cl)c(OC(F)(F)F)c1` [Example 1.389], the figure is not above 200 nM; as for `CCOc1cc(NC(=O)C(O)[C@@H](C)CC)ccc1S(=O)(=O)Nc1cccc(C(F)(F)F)c1` (stereo partly drawn) [Example 1.390], not above 200 nM; as for `CCC(C)[C@H](O)C(=O)Nc1ccc(S(=O)(=O)Nc2cccc(OC(F)(F)F)c2)c(OC)c1` (stereo partly drawn) [Example 1.391], not above 200 nM.

As to `COc1cc(NC(=O)[C@@H]2CCC[C@H]2N)ccc1S(=O)(=O)Nc1cccc(C(F)(F)F)c1` [Example 1.392], the IC50 was 2000 to 20000 nM. Turning to `CCOc1cc(NC(=O)[C@@H](N)C2CC2)ccc1S(=O)(=O)Nc1cccc(OC(F)(F)F)c1` [Example 1.393], the IC50 was not above 200 nM. As for `CCOc1cc(NC(=O)C2(c3ccccc3)CC2)ccc1S(=O)(=O)Nc1cccc(OC(F)(F)F)c1` [Example 1.394], the figure is 750 to 2000 nM; as for `O=C(Nc1ccc(S(=O)(=O)Nc2cccc(OC(F)(F)F)c2)c(F)c1)C(CO)c1ccccc1` (stereo not drawn) [Example 1.395], 750 to 2000 nM; as for `CCOc1cc(NC(=O)c2ccn(CC)c(=O)c2)ccc1S(=O)(=O)Nc1cccc(OC(F)(F)F)c1` [Example 1.396], not above 200 nM. As for `COc1cc(NC(=O)c2ccnn2C)ccc1S(=O)(=O)Nc1ccc(Br)c(OC(F)(F)F)c1` [Example 1.397], the figure is not above 200 nM.
